Measurements reported in patent EP0059057A1 (priority 1981, dated 1982).
Where two headings read alike, the source gives them in different places.

Experiments:
[1] = test system: culture filtrate prepared from an enteropathogenic strain of E. coli; assay type: in vivo; details: infant mice
[2] = test system: culture filtrate prepared from an enteropathogenic strain of E. coli; details: piglets; for Mean Scour Score ± SEM drug treated: score 0 - 3
[3] = test system: Heat stable E. coli enterotoxin from E. coli strain pl6; details: 100 µg/kg
[4] = 1 mg/kg p.o., 45 mins prior to challenge
[5] = 5 mg/kg p.o., 45 mins prior to challenge
[6] = 10 mg/kg p.o., 45 mins prior to challenge
[7] = 20 mg/kg p.o., 45 mins prior to challenge
[8] = 100 mg/kg p.o., 45 mins prior to challenge
[9] = 1 mg/kg po., duration of test 6 h
[10] = 1 mg/kg po., duration of test 12 h
[11] = 10 mg/kg po., duration of test 12 h
[12] = 2 x 5 mg/kg po., duration of test 12 h

CNCC(O)c1ccc(O)c(O)c1.O=C(O)C(O)C(O)C(=O)O (stereo not shown) [Adrenaline Bitartrate]
% Inhibition [1, 4]: 37%
% Inhibition [1, 5]: 36%
% Inhibition [1, 6]: 58%
% Inhibition [1, 7]: 70%
% Inhibition [1, 8]: 96%
% Inhibition of Scour [2, 9]: 11%
Mean Scour Score ± SEM drug treated [2, 9]: 2.0 ± 0.2
% Inhibition of Scour [2, 10]: 16%
Mean Scour Score ± SEM drug treated [2, 10]: 1.8 ± 0.1
% Inhibition of Scour [2, 11]: 98%
Mean Scour Score ± SEM drug treated [2, 11]: 0 ± 0
% Inhibition of Scour [2, 12]: 96%
Mean Scour Score ± SEM drug treated [2, 12]: 0.1 ± 0.1

CNCC(O)c1ccc(O)c(O)c1 (stereo not shown) [Adrenaline]
% Inhibition ([1]; 0.5 mg/kg p.o., 45 mins prior to challenge): 8%
% Inhibition [1, 4]: 18%
% Inhibition [1, 5]: 54%
% Inhibition [1, 6]: 54%
% Inhibition [1, 7]: 69%
% Inhibition [1, 8]: 101%
Secretion/(ml/30 min) (mean ± SEM [n=10) ([3]; time 0-30 min after toxin (before drug; drug administered 30 min after toxin)): 31 ± 3 ml/30 min
Secretion/(ml/30 min) (mean ± SEM [n=10) ([3]; time 30-60 min after toxin): 10 ± 1 ml/30 min
Secretion/(ml/30 min) (mean ± SEM [n=10) ([3]; time 60-90 min after toxin): 8 ± 2 ml/30 min
Secretion/(ml/30 min) (mean ± SEM [n=10) ([3]; time 90-120 min after toxin): 6 ± 2 ml/30 min
Secretion/(ml/30 min) (mean ± SEM [n=10) ([3]; time 120-150 min after toxin): 8 ± 3 ml/30 min
Secretion/(ml/30 min) (mean ± SEM [n=10) ([3]; time 150-180 min after toxin): 7 ± 2 ml/30 min
Secretion/(ml/30 min) (mean ± SEM [n=10) ([3]; time -30-0 min after toxin (before toxin and drug)): 3 ± 1 ml/30 min

C[C@H](N)[C@H](O)c1cccc(O)c1 [Metoraminol]
% Inhibition ([1]; 200 mg/kg p.o., 45 mins prior to challenge): 45%

NC[C@H](O)c1ccc(O)c(O)c1 [Noradrenaline]
% Inhibition ([1]; 10 mg/kg p.o., in 6mM ascorbate): 40%
